In US6933302B2, “Nitrogen-based homo-camptothecin derivatives” (California Pacific Medical Center, priority 2002, dated 2005):

Tested on: VM46 cells
Experiment: Cell colony formation assay
Type: cell-based
Settings: 72 hours drug incubation at 37° C., colonies counted after 8 days
Experimental: This example provides directions for growing cells and testing compounds of the invention for their effect on the growth of the cells. All cells can be purchased from DCTDC Tumor Repository, NCI, NIH.
Cell Colony Formation Assay
Five hundred cells (VM46) are plated in 60 mm Petri dishes containing 2.7 ml of medium (modified McCoy's 5a medium containing 10% fetal bovine serum and 100 units/ml penicillin and […]). The cells are incubated in a CO2 incubator at 37° C. for 5 hours for attachment to the bottom of Petri dishes. Drugs are made fresh in medium at ten times the final concentration, and then 0.3 ml of this stock solution is added to the 2.7 ml of medium in the dish. The cells are then incubated with drugs for 72 hours at 37° C. At the end of the incubation the drug-containing media are decanted, the dishes are rinsed with 4 ml of Hank's Balance Salt Solution (HBSS), 5 ml of fresh medium is added, and the dishes are returned to the incubator for colony formation. The cell colonies are counted using colony counter after incubation for 8 days for VM46 cells. Cell survival (%) is calculated .
Values of ID50 (the drug concentration producing 50% inhibition of colony formation) may be determined for each tested compound. Results are shown in Table I for hCPT as a compound of this invention taught in Example 16.

CC[C@@]1(O)CC(=O)OCc2c1cc1n(c2=O)Cc2cc3ccccc3nc2-1 [hCPT, homo-camptothecin]
Value of ID50 (drug concentration producing 50% inhibition of colony formation): 4 NM

CCC1(OC(=O)CCN2CCCCC2)CC(=O)OCc2c1cc1n(c2=O)Cc2cc3ccccc3nc2-1 (centres unmarked) [Example 021219, Homocamptothecin-20-O ester of 1-piperidine Propionic Acid]
Value of ID50 (drug concentration producing 50% inhibition of colony formation): 3.5 NM
